Experimental findings from patent US7135466B2 (Kirin Beer Kabushiki Kaisha, priority 1999, dated 2006) are described below.

The target of one assay is T1, PDGF-Ra (Homo sapiens, UniProt P16234).
T1 construct: host or cells: G-292 human osteosarcoma cells
In words: Inhibitory activity against PDGF-Ra phosphorylation by PDGF-AA stimulation using G292. The class given is cell-based. To be noted: Pharmacological Test Example 1; > means inhibition at indicated concentration not more than 50%, < and << not less than 50%; read-out: PDGF (E) IC50. An outline of the steps:
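Cells seeded in low-serum medium are exposed to test compound for one hour, then PDGF-AA (50 ng/ml) triggers receptor phosphorylation for 5 min at 37 °C. Phospho-PDGF-Ra in solubilized cells is quantified by anti-phosphotyrosine capture ELISA at 450 nm.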

For the next assay, the target named is T2, c-kit (Homo sapiens, UniProt P10721).
T2 construct: MO7e (human megakaryocytic leukemia cell line) which had been arrested for 20 hr; endogenous in cells; host or cells: MO7e human megakaryocytic leukemia cell line
In words: Inhibitory activity against c-kit autophosphorylation (MO7e cells, h-SCF). The settings on record: for IC50: MO7e cells, h-SCF 50 ng/ml, read-out: c-kit IC50; for inhibition at 1 µM: Mo7e, figure in parentheses in −( ), at 1000 nM. The class given is cell-based. An outline of the steps: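 Ligand-induced c-kit tyrosine phosphorylation is measured in MO7e cells that were quiesced 20 hr and preincubated with compound for 1 hr prior to a 5 min pulse of 50 ng/ml human SCF. Phospho-c-kit is detected by anti-phosphotyrosine capture ELISA, A450.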

T1 sequence (P16234 24-1089): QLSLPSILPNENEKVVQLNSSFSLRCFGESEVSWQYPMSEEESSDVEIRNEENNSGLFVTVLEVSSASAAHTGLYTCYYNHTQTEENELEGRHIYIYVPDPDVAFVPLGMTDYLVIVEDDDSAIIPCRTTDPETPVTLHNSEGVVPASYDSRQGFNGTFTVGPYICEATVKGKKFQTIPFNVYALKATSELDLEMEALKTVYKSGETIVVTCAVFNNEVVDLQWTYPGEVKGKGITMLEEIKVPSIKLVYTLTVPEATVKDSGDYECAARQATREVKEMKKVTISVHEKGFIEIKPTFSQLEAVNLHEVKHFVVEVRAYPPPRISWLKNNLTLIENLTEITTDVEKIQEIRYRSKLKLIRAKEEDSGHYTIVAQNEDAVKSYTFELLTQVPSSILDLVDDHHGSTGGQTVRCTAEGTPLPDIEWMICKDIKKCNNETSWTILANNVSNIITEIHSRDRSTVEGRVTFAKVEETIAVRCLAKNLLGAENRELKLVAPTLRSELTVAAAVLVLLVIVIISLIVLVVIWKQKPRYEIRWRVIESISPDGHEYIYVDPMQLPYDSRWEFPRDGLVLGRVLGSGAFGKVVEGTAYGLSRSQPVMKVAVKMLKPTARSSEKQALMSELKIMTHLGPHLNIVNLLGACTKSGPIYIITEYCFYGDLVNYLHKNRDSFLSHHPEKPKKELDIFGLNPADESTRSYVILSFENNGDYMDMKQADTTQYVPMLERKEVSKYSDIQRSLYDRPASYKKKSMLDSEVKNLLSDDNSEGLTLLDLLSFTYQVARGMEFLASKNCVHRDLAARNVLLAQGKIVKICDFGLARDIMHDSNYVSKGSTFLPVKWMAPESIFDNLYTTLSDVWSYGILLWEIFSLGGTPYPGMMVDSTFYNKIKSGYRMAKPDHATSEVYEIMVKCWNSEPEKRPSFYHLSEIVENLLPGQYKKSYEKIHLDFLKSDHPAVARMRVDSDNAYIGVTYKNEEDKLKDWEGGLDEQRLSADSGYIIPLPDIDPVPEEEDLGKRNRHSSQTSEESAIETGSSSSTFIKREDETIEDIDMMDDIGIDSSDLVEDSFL
T2 sequence (P10721 26-976): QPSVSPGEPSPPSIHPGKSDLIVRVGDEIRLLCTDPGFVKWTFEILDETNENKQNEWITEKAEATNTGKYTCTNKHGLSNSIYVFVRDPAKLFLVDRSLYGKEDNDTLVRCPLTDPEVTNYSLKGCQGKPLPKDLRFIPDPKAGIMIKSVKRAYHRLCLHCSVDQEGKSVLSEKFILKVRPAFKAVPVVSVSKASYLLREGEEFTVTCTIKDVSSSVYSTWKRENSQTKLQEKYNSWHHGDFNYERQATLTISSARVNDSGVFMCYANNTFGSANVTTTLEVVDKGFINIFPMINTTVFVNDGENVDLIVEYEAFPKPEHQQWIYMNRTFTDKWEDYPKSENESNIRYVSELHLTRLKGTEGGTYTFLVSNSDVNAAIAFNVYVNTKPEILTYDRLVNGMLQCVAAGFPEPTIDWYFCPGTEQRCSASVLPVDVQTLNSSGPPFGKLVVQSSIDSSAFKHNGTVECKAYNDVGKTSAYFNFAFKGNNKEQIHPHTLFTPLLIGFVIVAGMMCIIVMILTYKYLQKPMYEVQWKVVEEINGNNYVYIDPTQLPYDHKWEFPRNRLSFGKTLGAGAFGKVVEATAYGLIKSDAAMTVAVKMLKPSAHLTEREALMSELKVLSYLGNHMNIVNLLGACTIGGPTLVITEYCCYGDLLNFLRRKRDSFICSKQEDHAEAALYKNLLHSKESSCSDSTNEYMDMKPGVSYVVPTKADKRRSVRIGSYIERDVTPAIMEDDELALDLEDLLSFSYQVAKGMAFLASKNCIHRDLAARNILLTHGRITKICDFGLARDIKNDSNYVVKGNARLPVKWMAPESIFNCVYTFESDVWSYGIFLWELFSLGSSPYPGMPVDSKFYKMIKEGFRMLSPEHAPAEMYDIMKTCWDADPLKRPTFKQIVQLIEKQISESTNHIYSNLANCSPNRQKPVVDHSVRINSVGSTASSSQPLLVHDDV

As for `COc1cc2nccc(Oc3cc(C)c(NC(=O)OC(C)c4cccc(F)c4)cc3C)c2cc1OC` (stereo not drawn) [Example 99, 1-(3-Fluorophenyl)ethyl N-{4-[(6,7-dimethoxy-4-quinolyl)oxy]-2,5-dimethylphenyl}carbamate], the 50% inhibitory concentration (IC50) – broadly, the concentration needed to halve the response being measured – at PDGF-Ra was 21 nM; on c-kit, 394 nM.
On the same counts, the results for `COc1cc2ncnc(Oc3ccc(NC(=O)OC(C)c4cccc(F)c4)cc3)c2cc1OC` (stereo not drawn) [Example 100, 1-(3-Fluorophenyl)ethyl N-{4-[(6,7-dimethoxy-4-quinazolinyl)oxy]phenyl}carbamate] are 14 nM and 815 nM.
With `COc1cc2ncnc(Oc3ccc(NC(=O)OC(C)c4cccc(F)c4)c(Cl)c3)c2cc1OC` (stereo not drawn) [Example 101, 1-(3-Fluorophenyl)ethyl N-{2-chloro-4-[(6,7-dimethoxy-4-quinazolinyl)oxy]phenyl}carbamate], on PDGF-Ra, the IC50 is 12 nM. For the same compound, at c-kit, the inhibition (in general, the drop in the measured response relative to a control, in per cent) at 1 µM came out at 27%.
Turning to `COc1cc2nccc(Oc3ccc(NC(=O)OC(C)c4ccc(F)cc4)cc3)c2cc1OC` (stereo not drawn) [Example 102, 1-(4-Fluorophenyl)ethyl N-{4-[(6,7-dimethoxy-4-quinolyl)oxy]phenyl}carbamate], the IC50 was below 10 nM on PDGF-Ra and 217 nM on c-kit.
On the same counts, the results for `COc1cc2nccc(Oc3ccc(NC(=O)OC(C)c4ccc(F)cc4)c(C)c3C)c2cc1OC` (stereo not drawn) [Example 103, 1-(4-Fluorophenyl)ethyl N-{4-[(6,7-dimethoxy-4-quinolyl)oxy]-2,3-dimethylphenyl}carbamate] are 15 nM and 200 nM.
On the same counts, the results for `COc1cc2nccc(Oc3cc(C)c(NC(=O)OC(C)c4ccc(F)cc4)cc3C)c2cc1OC` (stereo not drawn) [Example 104, 1-(4-Fluorophenyl)ethyl N-{4-[(6,7-dimethoxy-4-quinolyl)oxy]-2,5-dimethylphenyl}carbamate] are 25 nM and 590 nM.
Turning to `COc1cc2ncnc(Oc3ccc(NC(=O)OC(C)c4ccc(F)cc4)cc3)c2cc1OC` (stereo not drawn) [Example 105, 1-(4-Fluorophenyl)ethyl N-{4-[(6,7-dimethoxy-4-quinazolinyl)oxy]phenyl}carbamate], the concentration for half-maximal inhibition (IC50) on PDGF-Ra is below 10 nM; on c-kit it was 252 nM.
On the same counts, the results for `COc1cc2nccc(Oc3ccc(NC(=O)OC(C)c4ccccc4Br)cc3)c2cc1OC` (stereo not drawn) [Example 112, 1-(2-Bromophenyl)ethyl N-{4-[(6,7-dimethoxy-4-quinolyl)oxy]phenyl}carbamate] are 16 nM and 214 nM.
In the same order, the values of `COc1cc2nccc(Oc3ccc(NC(=O)OC(C)c4ccccc4Br)c(C)c3C)c2cc1OC` (stereo not drawn) [Example 113, 1-(2-Bromophenyl)ethyl N-{4-[(6,7-dimethoxy-4-quinolyl)oxy]-2,3-dimethylphenyl}carbamate] are 18 nM and 402 nM.
Consider `COc1cc2nccc(Oc3cc(C)c(NC(=O)OC(C)c4ccccc4Br)cc3C)c2cc1OC` (stereo not drawn) [Example 114, 1-(2-Bromophenyl)ethyl N-{4-[(6,7-dimethoxy-4-quinolyl)oxy]-2,5-dimethylphenyl}carbamate], for which the IC50 on PDGF-Ra came to 65 nM; at c-kit, 602 nM.
On the same counts, the results for `COc1cc2ncnc(Oc3ccc(NC(=O)OC(C)c4ccccc4Br)cc3)c2cc1OC` (stereo not drawn) [Example 115, 1-(2-Bromophenyl)ethyl N-{4-[(6,7-dimethoxy-4-quinazolinyl)oxy]phenyl}carbamate] are below 10 nM and 387 nM.
In the same order, the values of `COc1cc2nccc(Oc3ccc(NC(=O)OC(C)c4cccc(Br)c4)cc3)c2cc1OC` (stereo not drawn) [Example 117, 1-(3-Bromophenyl)ethyl N-{4-[(6,7-dimethoxy-4-quinolyl)oxy]phenyl}carbamate] are 26 nM and 759 nM.
On the same counts, the results for `COc1cc2nccc(Oc3ccc(NC(=O)OC(C)c4cccc(Br)c4)c(C)c3C)c2cc1OC` (stereo not drawn) [Example 118, 1-(3-Bromophenyl)ethyl N-{4-[(6,7-dimethoxy-4-quinolyl)oxy]-2,3-dimethylphenyl}carbamate] are 33 nM and 746 nM.
For `COc1cc2nccc(Oc3cc(C)c(NC(=O)OC(C)c4cccc(Br)c4)cc3C)c2cc1OC` (stereo not drawn) [Example 119, 1-(3-Bromophenyl)ethyl N-{4-[(6,7-dimethoxy-4-quinolyl)oxy]-2,5-dimethylphenyl}carbamate], the half-inhibitory concentration (IC50) on PDGF-Ra is above 100 nM. Further, at c-kit, the inhibition at 1 µM came to 31%.
In the case of `COc1cc2ncnc(Oc3ccc(NC(=O)OC(C)c4cccc(Br)c4)cc3)c2cc1OC` (stereo not drawn) [Example 120, 1-(3-Bromophenyl)ethyl N-{4-[(6,7-dimethoxy-4-quinazolinyl)oxy]phenyl}carbamate], the IC50 worked out at 13 nM on PDGF-Ra and 505 nM at c-kit.
Turning to `COc1cc2ncnc(Oc3ccc(NC(=O)OC(C)c4cccc(Br)c4)c(Cl)c3)c2cc1OC` (stereo not drawn) [Example 121, 1-(3-Bromophenyl)ethyl N-{2-chloro-4-[(6,7-dimethoxy-4-quinazolinyl)oxy]phenyl}carbamate], at PDGF-Ra, the IC50 was found to be 48 nM. The inhibition at 1 µM at c-kit came out at 17%.
In the case of `COc1cc2nccc(Oc3ccc(NC(=O)OC(C)c4ccccc4F)cc3)c2cc1OC` (stereo not drawn) [Example 122, 1-(2-Fluorophenyl)ethyl N-{4-[(6,7-dimethoxy-4-quinolyl)oxy]phenyl}carbamate], the values for the IC50 at PDGF-Ra and at c-kit were 11 nM and 821 nM, respectively.
For `COc1cc2nccc(Oc3ccc(NC(=O)OC(C)c4ccccc4F)c(C)c3C)c2cc1OC` (stereo not drawn) [Example 123, 1-(2-Fluorophenyl)ethyl N-{4-[(6,7-dimethoxy-4-quinolyl)oxy]-2,3-dimethylphenyl}carbamate], the half-maximal inhibitory concentration (IC50) was below 10 nM on PDGF-Ra and 207 nM at c-kit.
Take `COc1cc2nccc(Oc3cc(C)c(NC(=O)OC(C)c4ccccc4F)cc3C)c2cc1OC` (stereo not drawn) [Example 124, 1-(2-Fluorophenyl)ethyl N-{4-[(6,7-dimethoxy-4-quinolyl)oxy]-2,5-dimethylphenyl}carbamate]: the 50% inhibitory concentration (IC50) at PDGF-Ra came to 42 nM. Besides, the inhibition at 1 µM at c-kit was 39%.
As for `COc1cc2ncnc(Oc3ccc(NC(=O)OC(C)c4ccccc4F)cc3)c2cc1OC` (stereo not drawn) [Example 125], the 50% inhibitory concentration (IC50) at PDGF-Ra is below 10 nM; at c-kit it was 671 nM.
`COc1cc2ncnc(Oc3ccc(NC(=O)OC(C)c4ccccc4F)c(Cl)c3)c2cc1OC` (stereo not drawn) [Example 126, 1-(2-Fluorophenyl)ethyl N-{2-chloro-4-[(6,7-dimethoxy-4-quinazolinyl)oxy]phenyl}carbamate]: the concentration for half-maximal inhibition (IC50) at PDGF-Ra amounted to 19 nM. Besides, on c-kit, the inhibition at 1 µM worked out at 10%.
For `CCOc1ccccc1C(C)OC(=O)Nc1ccc(Oc2ccnc3cc(OC)c(OC)cc23)cc1` (stereo not drawn) [Example 127, 1-(2-Ethoxyphenyl)ethyl N-{4-[(6,7-dimethoxy-4-quinolyl)oxy]phenyl}carbamate], the half-maximal inhibitory concentration (IC50) at PDGF-Ra worked out at 16 nM; on c-kit, 283 nM.
On the same counts, the results for `CCOc1ccccc1C(C)OC(=O)Nc1ccc(Oc2ccnc3cc(OC)c(OC)cc23)c(C)c1C` (stereo not drawn) [Example 128, 1-(2-Ethoxyphenyl)ethyl N-{4-[(6,7-dimethoxy-4-quinolyl)oxy]-2,3-dimethylphenyl}carbamate] are 26 nM and 375 nM.
In the same order, the values of `CCOc1ccccc1C(C)OC(=O)Nc1cc(C)c(Oc2ccnc3cc(OC)c(OC)cc23)cc1C` (stereo not drawn) [Example 129, 1-(2-Ethoxyphenyl)-ethyl N-{4-[(6,7-dimethoxy-4-quinolyl)oxy]-2,5-dimethylphenyl}carbamate] are 64 nM and 732 nM.
